The test relates to L1210 leukemia ip in BDF1 mice, survival T/C. Description: NCI In Vivo Anticancer Drug Screen. Data for tumor model L1210 Leukemia (intraperitoneal) in B6D2F1 (BDF1) mice. The note with it: endpoint: mean survival time, higher = longer survival. The gist of the method: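 Read-out is survival time, reported as the treated-group measurement over the vehicle-control measurement.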

The mark [1] stands for this setting: dose: 200.0 mg/kg/injection, schedule: Q01DX001 (ip), vehicle: saline.
Setting [2] is: dose: 400.0 mg/kg/injection, schedule: Q01DX001 (ip), vehicle: saline.
Setting [3] is: dose: 100.0 mg/kg/injection, schedule: Q01DX009 (ip), vehicle: saline with Tween-80.
[4] abbreviates: dose: 200.0 mg/kg/injection, schedule: Q01DX009 (ip), vehicle: saline with Tween-80.
Setting [5] is: dose: 400.0 mg/kg/injection, schedule: Q01DX009 (ip), vehicle: saline with Tween-80.
Setting [6] is: dose: 100.0 mg/kg/injection, schedule: Q01DX001 (ip), vehicle: saline.
Setting [7] is: dose: 100.0 mg/kg/injection, schedule: Q04DX003 (ip), vehicle: saline.
[8] abbreviates: dose: 400.0 mg/kg/injection, schedule: Q04DX003 (ip), vehicle: saline.
[9] abbreviates: dose: 100.0 mg/kg/injection, schedule: Q01DX001 (ip), vehicle: carboxymethylcellulose (CMC).
The mark [10] stands for this setting: dose: 200.0 mg/kg/injection, schedule: Q01DX001 (ip), vehicle: carboxymethylcellulose (CMC).
[11] abbreviates: dose: 100.0 mg/kg/injection, schedule: Q04DX003 (ip), vehicle: Klucel (hydroxypropylcellulose) (HPC).
Where [12] appears, read: dose: 200.0 mg/kg/injection, schedule: Q04DX003 (ip), vehicle: Klucel (hydroxypropylcellulose) (HPC).
Where [13] appears, read: dose: 400.0 mg/kg/injection, schedule: Q04DX003 (ip), vehicle: Klucel (hydroxypropylcellulose) (HPC).
Setting [14] is: dose: 50.0 mg/kg/injection, schedule: Q01DX001 (ip), vehicle: saline.
Setting [15] is: dose: 100.0 mg/kg/injection, schedule: Q04DX003 (ip), vehicle: saline with Tween-80.
[16] abbreviates: dose: 200.0 mg/kg/injection, schedule: Q04DX003 (ip), vehicle: saline with Tween-80.
Where [17] appears, read: dose: 400.0 mg/kg/injection, schedule: Q04DX003 (ip), vehicle: saline with Tween-80.
Where [18] appears, read: dose: 100.0 mg/kg/injection, schedule: Q04DX002 (ip), vehicle: Klucel (hydroxypropylcellulose) (HPC).
The mark [19] stands for this setting: dose: 200.0 mg/kg/injection, schedule: Q04DX002 (ip), vehicle: Klucel (hydroxypropylcellulose) (HPC).
Where [20] appears, read: dose: 400.0 mg/kg/injection, schedule: Q01DX001 (ip), vehicle: carboxymethylcellulose (CMC).

Toxic doses and inconclusive results are not listed.

For `Nc1nc2nc(-c3ccccc3)nc(N)c2nc1-c1ccc(N(CCO)CCO)cc1`, the T/C (dose: 45.0 mg/kg/injection, schedule: Q01DX001 (ip), vehicle: saline) is 102 % of control; the T/C (dose: 67.0 mg/kg/injection, schedule: Q01DX001 (ip), vehicle: saline) is 108 % of control; the T/C (dose: 150.0 mg/kg/injection, schedule: Q01DX001 (ip), vehicle: saline) is 91 % of control; the T/C under setting [1] is 95 % of control; the T/C under setting [2] is 95 % of control.
Regarding `CCN(CC)C(C)C(O)c1ccc2cc(Br)c3ccccc3c2c1` (centres undefined), the T/C runs as follows: (dose: 55.0 mg/kg/injection, schedule: Q01DX Z (ip), vehicle: methylcellulose (MC)) 95 % of control; (dose: 83.0 mg/kg/injection, schedule: Q01DX Z (ip), vehicle: methylcellulose (MC)) 97 % of control; (dose: 125.0 mg/kg/injection, schedule: Q01DX Z (ip), vehicle: methylcellulose (MC)) 92 % of control.
As to `O=C(CNc1ccccc1)NCc1ccccc1`, the T/C under setting [3] was 92 % of control, the T/C under setting [4] is 95 % of control and the T/C under setting [5] was 97 % of control.
Consider `CC(=O)OC1CC2(Cl)C(Cl)=C(Cl)C1(Cl)C2(Cl)Cl` (centres undefined), for which the T/C is 100 % of control under setting [6]; 89 % of control under setting [7]; 98 % of control under setting [1]; 98 % of control under setting [2]; 103 % of control under setting [8].
Turning to `CC(=O)c1c(O)cc(O)cc1-c1cc(=O)c2c(O)ccc(C(C)=O)c2o1`, the T/C reads like this: under setting [9], 103 % of control; under setting [10], 94 % of control.
For the molecule `c1cc(C[N+]23CN4CN(CN(C4)C2)C3)cs1`, the T/C (dose: 25.0 mg/kg/injection, schedule: Q04DX003 (ip), vehicle: saline) is 93 % of control and the T/C (dose: 50.0 mg/kg/injection, schedule: Q04DX003 (ip), vehicle: saline) was 95 % of control.
As to `CC1(O)C(c2ccccc2)=Nc2ccccc21` (centres undefined), the T/C is 95 % of control (dose: 100.0 mg/kg/injection, schedule: Q04DX002 (ip), vehicle: saline with Tween-80); 113 % of control (dose: 200.0 mg/kg/injection, schedule: Q04DX002 (ip), vehicle: saline with Tween-80); 92 % of control (dose: 400.0 mg/kg/injection, schedule: Q04DX002 (ip), vehicle: saline with Tween-80).
Turning to `CC(=O)OCC(Cl)C(Cl)CCl` (centres undefined), the T/C was 96 % of control under setting [11], 95 % of control under setting [12] and 95 % of control under setting [13].
In the case of `CCCCNC(=S)NC1CC(O[C@H]2C[C@](O)(C(C)=O)Cc3c(O)c4c(c(O)c32)C(=O)c2c(OC)cccc2C4=O)OC(C)C1O` (some centres undefined), the T/C under setting [3] is 94 % of control.
Regarding `Cc1cccc(C)c1C1=CCCCC1`, the T/C under setting [14] was 108 % of control, the T/C under setting [6] was 104 % of control, the T/C under setting [1] was 104 % of control and the T/C under setting [2] was 110 % of control.
In the case of `O=c1cc(Cl)c(=O)[nH][nH]1`, the T/C runs as follows: under setting [3], 100 % of control; under setting [15], 94 % of control; under setting [4], 100 % of control; under setting [16], 94 % of control; under setting [5], 114 % of control; under setting [17], 94 % of control.
For the molecule `O=C(O)C12CCC1(Cl)CC2` (centres undefined), the T/C by setting is: (dose: 50.0 mg/kg/injection, schedule: Q04DX002 (ip), vehicle: Klucel (hydroxypropylcellulose) (HPC)) 104 % of control; under setting [18], 97 % of control; under setting [19], 108 % of control.
For the molecule `O=C(O)CCCCOc1ccc([N+](=O)[O-])cc1Cl`, the T/C by setting is: (dose: 100.0 mg/kg/injection, schedule: Q01DX009 (ip), vehicle: Klucel (hydroxypropylcellulose) (HPC)) 109 % of control; (dose: 200.0 mg/kg/injection, schedule: Q01DX009 (ip), vehicle: Klucel (hydroxypropylcellulose) (HPC)) 103 % of control.
In the case of `O=C(O)C1C2CC3OCC1C3C2` (centres undefined), the T/C is 104 % of control (dose: 100.0 mg/kg/injection, schedule: Q04DX003 (ip), vehicle: alkali diluted with saline); 98 % of control (dose: 200.0 mg/kg/injection, schedule: Q04DX003 (ip), vehicle: alkali diluted with saline); 93 % of control (dose: 400.0 mg/kg/injection, schedule: Q04DX003 (ip), vehicle: alkali diluted with saline).
As to `COC1(OC)C2(Cl)CC(c3ccc(Cl)cc3)C1(Cl)C(Cl)=C2Cl` (centres undefined), the T/C was 110 % of control under setting [3]; 98 % of control under setting [11]; 101 % of control under setting [4]; 105 % of control under setting [12]; 100 % of control under setting [5]; 104 % of control under setting [13].
Regarding `O=S(=O)(CBr)CBr`, the T/C was 98 % of control under setting [6], 95 % of control under setting [1] and 112 % of control under setting [2].
As to `CCCCCCCCCCCCCCCCN1CNC(=O)NC1`, the T/C runs as follows: (dose: 100.0 mg/kg/injection, schedule: Q01DX001 (ip), vehicle: other) 98 % of control; (dose: 200.0 mg/kg/injection, schedule: Q01DX001 (ip), vehicle: other) 98 % of control; (dose: 400.0 mg/kg/injection, schedule: Q01DX001 (ip), vehicle: other) 95 % of control.
Regarding `Cc1cc2cccc(CN)c2cc1C`, where the note is “dose: 100.0 mg/kg/injection, schedule: Q01DX001 (ip), vehicle: Klucel (hydroxypropylcellulose) (HPC)”, the T/C was 93 % of control.
Turning to `O=C1C=CC(=O)N1c1nccs1`, the T/C under setting [15] is 95 % of control, the T/C under setting [16] is 90 % of control and the T/C under setting [17] was 95 % of control.
Consider `O=C1c2ccccc2C(=O)c2c1ccc1nc(Cl)c(=O)[nH]c21`, for which the T/C under setting [9] is 93 % of control, the T/C under setting [10] is 95 % of control and the T/C under setting [20] was 100 % of control.
As to `Nc1cccc(S(=O)(=O)N(CCO)CCO)c1`, the T/C under setting [7] was 90 % of control; the T/C (dose: 200.0 mg/kg/injection, schedule: Q04DX003 (ip), vehicle: saline) is 95 % of control; the T/C under setting [8] is 94 % of control.
For the molecule `CC(/C=C/c1ccccc1)=N\NC(=O)NN`, the T/C reads like this: under setting [6], 91 % of control; under setting [1], 89 % of control; under setting [2], 89 % of control.
Consider `CCOC(=O)C(c1ccccc1)C(NC(C)=O)(C(=O)OCC)C(=O)OCC` (centres undefined), for which the T/C is 114 % of control under setting [18]; 104 % of control under setting [19]; 93 % of control (dose: 400.0 mg/kg/injection, schedule: Q04DX002 (ip), vehicle: Klucel (hydroxypropylcellulose) (HPC)).
Consider `Cc1ccc(S(=O)(=O)N(Cl)Cl)cc1`, for which the T/C by setting is: (dose: 6.25 mg/kg/injection, schedule: Q01DX009 (ip), vehicle: Klucel (hydroxypropylcellulose) (HPC)) 115 % of control; (dose: 6.25 mg/kg/injection, schedule: Q04DX003 (ip), vehicle: Klucel (hydroxypropylcellulose) (HPC)) 94 % of control; (dose: 12.5 mg/kg/injection, schedule: Q04DX003 (ip), vehicle: Klucel (hydroxypropylcellulose) (HPC)) 98 % of control; (dose: 25.0 mg/kg/injection, schedule: Q01DX009 (ip), vehicle: Klucel (hydroxypropylcellulose) (HPC)) 94 % of control; (dose: 25.0 mg/kg/injection, schedule: Q04DX003 (ip), vehicle: Klucel (hydroxypropylcellulose) (HPC)) 102 % of control; under setting [6], 110 % of control. The T/C reads like this: under setting [1], 101 % of control; under setting [2], 108 % of control.
`CCOC(=O)c1c[nH]c(=O)c([N+](=O)[O-])c1O`: the T/C under setting [3] is 98 % of control; the T/C under setting [15] is 96 % of control; the T/C under setting [4] was 109 % of control; the T/C under setting [16] was 98 % of control; the T/C under setting [5] was 92 % of control; the T/C under setting [17] was 90 % of control.
Turning to `COc1ccc2c(c1)c1c(C)c3cnccc3c(C)c1n2C`, the T/C runs as follows: (dose: 25.0 mg/kg/injection, schedule: Q01DX001 (ip), vehicle: saline) 100 % of control; under setting [14], 102 % of control; (dose: 89.0 mg/kg/injection, schedule: Q01DX001 (ip), vehicle: carboxymethylcellulose (CMC)) 102 % of control; (dose: 265.0 mg/kg/injection, schedule: Q01DX001 (ip), vehicle: saline) 152 % of control; (dose: 267.0 mg/kg/injection, schedule: Q01DX001 (ip), vehicle: carboxymethylcellulose (CMC)) 107 % of control; under setting [20], 117 % of control. In addition, under setting [2], the T/C was 124 % of control.

For the origin of these results see PubChem BioAssay AID248 (DTP/NCI, 2004).
